Measured values: patent US20090042882A1, “SUBSTITUTED ACETAMIDES AS MODULATORS OF THE EP2 RECEPTOR” (priority 2007, published 2009)

Assays:
[1] = target: T1, human prostaglandin E2 (subtype EP2) receptor (Homo sapiens, UniProt P43116); experiment: cAMP antagonism assay; format: cell-based; conditions: in the presence of PGE2
T1 construct: host or cells: cells in a culture plate
Procedure: (§1) The binding of PGE2 to the EP2 subtype of the human PGE2 receptor induces activation of membrane-associated adenylate cyclases and leads to the formation of cAMP. In the presence of the phosphodiesterase inhibitor IBMX, cAMP which has accumulated due to this stimulation and been released by cell lysis is employed in a competitive detection method. In this assay, the cAMP in the lysate competes with cAMP-XL665 for binding of an Eu cryptate-labelled anti-cAMP antibody.
(§2) The two signals are measured in a suitable measuring instrument with a time lag, i.e. after the background fluorescence has declined.
(§3) The substance solutions (0.75 μl) introduced into an assay plate and 30% DMSO are dissolved in 16 μl of a KRSB+IBMX stimulation solution (1× Krebs-Ringer Bicarbonate Buffer; Sigma-Aldrich # K-4002; including 750 μM 3-isobutyl-1-methylxanthine Sigma-Aldrich # I-7018), and then 15 μl thereof are transferred into a media-free cell culture plate which has been washed with KRSB shortly beforehand.
After preincubation at room temperature (RT) for 30 minutes, 5 μl of a 4×PGE2 solution (11 nM) are added, and incubation is carried out in the presence of the agonist at RT for a further 60 min (volume: ˜20 μl) before the reaction is then stopped by adding 5 μl of lysis buffer and incubated at RT for a further 20 min (volume: ˜25 μl). The cell lysate is then transferred into a measuring plate and measured in accordance with the manufacturer's information (cyclic AMP kit Cisbio International #62AMPPEC).

[2] = system: cumulus-oocyte complexes (cumulus expansion); experiment: cumulus expansion assay in vitro; format: cell-based, mice
Procedure: Folliculogenesis is induced in immature female mice (strain: CD1 (ICR) from Charles River) at an age of 14-18 days by a single dose (intraperitoneal) of 10 I.U. of PMSG (Pregnant Mare Serum Gonadotropine; Sigma G-4877, Lot 68H0909). 47-50 hours after the injection, the ovaries are removed and the cumulus-oocyte complexes are removed. The cumulus complex is not yet expanded at this stage.
The cumulus-oocyte complexes are then incubated with prostaglandin E2 (PGE2) (0.3 μM), vehicle control (ethanol) or test substances for 20-24 hours. Medium: alpha-MEM medium with 0.1 mM IBMX, pyruvates (0.23 mM) glutamines (2 mM), pen/strep 100 IU/ml pen. and 100 μg/ml strep.) and HSA (8 mg/ml)). Cumulus expansion is then established through the division into four stages (according to Vanderhyden et al. Dev Biol. 1990 August; 140 (2):307-317).

[3] = target: T1, human prostaglandin E2 (subtype EP2) receptor; experiment: cellular cAMP agonism assay; format: cell-based
Procedure: as §1, §2, §3
After incubation at room temperature (RT; volume: ˜15 μl) for 60 minutes, the reaction is then stopped by adding 5 μl of lysis buffer and incubated at RT for a further 20 min (volume: ˜20 μl). The cell lysate is then transferred into a measuring plate and measured in accordance with the manufacturer's information (cyclic AMP kit Cisbio International #62AMPPEC).

T1 sequence (P43116 whole entry): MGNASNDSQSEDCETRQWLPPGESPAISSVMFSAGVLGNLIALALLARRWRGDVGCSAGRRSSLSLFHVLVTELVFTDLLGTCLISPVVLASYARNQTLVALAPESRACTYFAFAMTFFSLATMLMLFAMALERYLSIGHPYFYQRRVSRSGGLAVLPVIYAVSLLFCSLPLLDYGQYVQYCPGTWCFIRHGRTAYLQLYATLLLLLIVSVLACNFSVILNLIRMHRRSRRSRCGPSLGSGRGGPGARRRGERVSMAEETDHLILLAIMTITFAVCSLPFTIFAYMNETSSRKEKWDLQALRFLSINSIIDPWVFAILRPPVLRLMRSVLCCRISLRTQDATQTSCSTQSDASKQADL

| Compound | IC50 [1] [nM] | inhibition of cumulus expansion ([2]; concentration 100-200 μM, competing with the natural EP2 receptor agonist PGE2) [%] | effect in the cellular agonism test [3] | inhibition of cumulus expansion ([2]; concentration 10 μM (10 to 20 times lower than AH 6809), competing with PGE2) [%] |
| --- | --- | --- | --- | --- |
| COc1ccc(OCC(=O)NCCc2c(C)[nH]c3c(F)ccc(C)c23)cc1 [Example 1, N-[2-(7-Fluoro-2,4-dimethyl-1H-indol-3-yl)ethyl]2-(4-methoxyphenoxy)acetamide] | 1100 |  |  |  |
| Cc1[nH]c2c(F)ccc(C)c2c1CCNC(=O)COc1ccccc1 [Example 5, N-[2-(7-Fluoro-2,4-dimethyl-1H-indol-3-yl)-ethyl]-2-phenoxy-acetamide] | 2700 |  |  |  |
| CC(C)Oc1ccc2c(=O)c3cc(C(=O)O)ccc3oc2c1 [AH 6809, reference compound] |  | ~30 |  |  |
| Cc1[nH]c2c(F)ccc(C)c2c1CCNC(=O)COc1ccc(Cl)cc1 [Example 6, 2-(4-Chlorophenoxy)-N-[2-(7-fluoro-2,4-dimethyl-1H-indol-3-yl)ethyl]-acetamide] | 1300 |  | no inhibition | 30 |
